Patent US20260191861A1, “INFLAMMASOME AND VEGF INHIBITION FOR RETINAL VASCULAR DISEASES” (University of Virginia Patent Foundation, priority 2022, published 2026)

Columns and labels:
[1] = tested on: participants with diabetic macular edema; experiment: Systemic and ocular adverse events in the lamivudine versus placebo trial; assay type: in vivo, human
Text: If the participant developed high-risk proliferative diabetic retinopathy or had to undergo any ocular surgery during the study period, they would be excluded. Patients were monitored for adverse events by the assessing physician, and new laboratory tests could be performed at the physician's discretion.
Secondary outcomes included the change in central subfield thickness, the percentage of eyes with an improvement in VALS of 15 or more, the correlation between improvements in visual acuity and central subfield thickness, and systemic and ocular adverse events. Change in central subfield thickness was estimated using mixed-effects models, similar to the VALS analysis. To analyze a VALS improvement of at least 15 letters, logistic regression using generalized estimating equations (GEEs) was specified with an exchangeable correlation matrix. Model-based contrasts were estimated to make pairwise treatment comparisons.

caspase-1 = experiment: Rhegmatogenous retinal detachment (RRD) model: retinal caspase-1 cleavage by immunoblot; assay type: in vivo, mouse; conditions: day 3 RRD, equimolar IP doses twice daily (K-9H 60 mg/kg, 3TC 50 mg/kg)
Procedure: All experiments involving animals were approved by the University of Virginia Institutional Animal Care and Use Committee (IACUC) and adhered to the Association for Research in Vision and Ophthalmology (ARVO) Statement for the Use of Animals in Ophthalmic and Vision Research. Animal subjects were male and female mice aged 6 to 10 weeks. Wild type C57BL/6J mice were obtained from the Jackson Laboratory (Bar Harbor, ME, USA). To anesthetize mice for study procedures, ketamine hydrochloride (100 mg/kg; Ft. Dodge Animal Health, Overland Park, KS, USA) and xylazine (10 mg/kg; Phoenix Scientific, St. Joseph, MO, USA) were delivered by intraperitoneal (IP) injection. Pupils were dilated with topical 1% tropicamide and 2.5% phenylephrine (Alcon Laboratories, Ft. Worth, TX, USA).
RRD model was established by subretinal injection (SRI) of 3 μl 1% carboxymethyl cellulose (CMC; Refresh Liquigel, Allergan, Irvine, CA, USA).
NRTIs and K-9 were delivered via intraperitoneal (IP) injection in equimolar amounts. […] Kamuvudine K-9 (3-methyl-3TC, MW=273 g/mol) was administered either at a low dose (K-9L; 90 mg/kg daily) or a high dose (K-9H; 60 mg/kg twice daily, equimolar to NRTI doses). IP injection of phosphate buffered saline (PBS) was used as control.
Retinal tissue was extracted and lysed by sonication in radioimmunoprecipitation assay (RIPA) buffer (MilliporeSigma, Darmstadt, Germany). The Pierce BCA Protein Assay Kit (ThermoFisher Scientific, Waltham, MA, USA) was used to determine protein concentrations of interest. Samples were prepared that contained equal concentrations of total protein (10-100 μg). Protein samples were resolved by SDS-PAGE and transferred onto Immobilon-FL PVDF membranes (Millipore, Billerica, MA, USA). Membranes were blocked in Odyssey Blocking Buffer (PBS) for 1 hour at room temperature, and then incubated overnight with primary antibody at 4° C. Across study experiments, the following antibodies were used: anti-mouse caspase-1 (1:1000; AG-20B-0042; AdipoGen Life Sciences, San Diego, CA, USA), and anti-mouse GAPDH (1:1000; 2118; Cell Signaling, Danvers, MA, USA). […]

[2] = ocular adverse event, of 16 eyes
[3] = systemic adverse event, of 10 subjects

**Q.** How did the “Endophthalmitis - (%)” value [1, 2] turn out when `Nc1ccn([C@@H]2CS[C@H](CO)O2)c(=O)n1` [Lamivudine] was run?
**A.** (0%)

**Q.** And the “Endophthalmitis - N” value [1, 2]?
**A.** 0

**Q.** And the “Increase in intraocular pressure ≥10 mm Hg from baseline - (%)” value [1, 2]?
**A.** (0%)

**Q.** What about the “Increase in intraocular pressure ≥10 mm Hg from baseline - N” value [1, 2] of the same compound?
**A.** 0

**Q.** And the “Intraocular inflammation* - (%)” value [1, 2]?
**A.** (0%)

**Q.** What about the “Intraocular inflammation* - N” value [1, 2] of the same compound?
**A.** 0

**Q.** And the “Retinal detachment - (%)” value [1, 2]?
**A.** (0%)

**Q.** What about the “Retinal detachment - N” value [1, 2] of the same compound?
**A.** 0

**Q.** And the “Subconjunctival hemorrhage - (%)” value [1, 2]?
**A.** (18.8%)

**Q.** And the “Subconjunctival hemorrhage - N” value [1, 2]?
**A.** 3

**Q.** What about the “Traumatic cataract - (%)” value [1, 2] of the same compound?
**A.** (0%)

**Q.** What about the “Traumatic cataract - N” value [1, 2] of the same compound?
**A.** 0

**Q.** And the “Vitreous hemorrhage - (%)” value [1, 2]?
**A.** (0%)

**Q.** What about the “Vitreous hemorrhage - N” value [1, 2] of the same compound?
**A.** 0

**Q.** What about the “Abdominal pain - (%)” value [1, 3] of the same compound?
**A.** (0%)

**Q.** And the “Abdominal pain - N” value [1, 3]?
**A.** 0

**Q.** And the “Alopecia - (%)” value [1, 3]?
**A.** (0%)

**Q.** And the “Alopecia - N” value [1, 3]?
**A.** 0

**Q.** And the “Arthralgia - (%)” value [1, 3]?
**A.** (0%)

**Q.** And the “Arthralgia - N” value [1, 3]?
**A.** 0

**Q.** And the “Diarrhea - (%)” value [1, 3]?
**A.** (10%)

**Q.** And the “Diarrhea - N” value [1, 3]?
**A.** 1

**Q.** And the “Disphoresis - (%)” value [1, 3]?
**A.** (10%)

**Q.** And the “Disphoresis - N” value [1, 3]?
**A.** 1

**Q.** And the “Fatigue - (%)” value [1, 3]?
**A.** (10%)

**Q.** And the “Fatigue - N” value [1, 3]?
**A.** 1

**Q.** And the “Headache - (%)” value [1, 3]?
**A.** (20%)

**Q.** And the “Headache - N” value [1, 3]?
**A.** 2

**Q.** What about the “Myalgia - (%)” value [1, 3] of the same compound?
**A.** (0%)

**Q.** What about the “Myalgia - N” value [1, 3] of the same compound?
**A.** 0

**Q.** And the “Nausea or vomiting - (%)” value [1, 3]?
**A.** (20%)

**Q.** And the “Nausea or vomiting - N” value [1, 3]?
**A.** 2

**Q.** And the “Pruritus - (%)” value [1, 3]?
**A.** (20%)

**Q.** What about the “Pruritus - N” value [1, 3] of the same compound?
**A.** 2

**Q.** What about the “Skin rash - (%)” value [1, 3] of the same compound?
**A.** (0%)

**Q.** And the “Skin rash - N” value [1, 3]?
**A.** 0

**Q.** What about the ocular adverse events ([1]; week 4) of the same compound?
**A.** no ocular adverse events

**Q.** And the “subconjunctival hemorrhage after intravitreous injection” value ([1]; week 8)?
**A.** three

**Q.** And the “degree of suppression of caspase-1 activation” value (caspase-1)?
**A.** 52%+8%
